Results taken from US11377442B2, “Small molecule agonists and antagonists of NR2F6 activity” (ZANDER THERAPEUTICS, INC., priority 2016, dated 2022).
Read-outs that look alike come from different tables or passages of the source.

Key:
Assay type in all cases: cell-based
Renilla = Renilla signal in NR2F6 agonist screening, cmpd/DMSO; conditions: first set screening, 10 μM; for fold induction at 10 µM: Renilla
ERα = biological target: T1, ERα (Homo sapiens, UniProt P03372); assay: Counterscreening, Firefly signal with ERα transient transfection (Firefly_ERa); conditions: ERα transient transfection, 10 μM
T1 construct: expressed in transfected cells
T1 sequence (P03372 1-595): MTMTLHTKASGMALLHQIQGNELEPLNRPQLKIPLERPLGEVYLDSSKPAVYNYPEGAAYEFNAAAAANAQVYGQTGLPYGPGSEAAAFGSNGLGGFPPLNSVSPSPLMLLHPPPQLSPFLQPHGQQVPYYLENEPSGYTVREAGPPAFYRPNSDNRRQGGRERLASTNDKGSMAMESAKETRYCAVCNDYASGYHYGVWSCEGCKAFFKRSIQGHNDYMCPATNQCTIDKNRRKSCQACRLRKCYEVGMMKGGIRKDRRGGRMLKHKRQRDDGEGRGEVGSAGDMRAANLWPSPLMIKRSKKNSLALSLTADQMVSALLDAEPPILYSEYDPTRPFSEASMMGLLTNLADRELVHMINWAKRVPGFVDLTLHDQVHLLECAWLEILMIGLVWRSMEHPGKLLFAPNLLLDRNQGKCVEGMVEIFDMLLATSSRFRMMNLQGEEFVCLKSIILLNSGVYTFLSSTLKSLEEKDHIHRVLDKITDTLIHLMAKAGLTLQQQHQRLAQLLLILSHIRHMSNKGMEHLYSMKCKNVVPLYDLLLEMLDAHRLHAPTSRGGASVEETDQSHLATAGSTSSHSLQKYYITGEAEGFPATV
Method: The methodology for screening candidate compounds as NR2F6 agonists was as follows: For primary screening, hit criteria was ACT %>DMSO control+5*SD (DSO control) at 10 μM, or any compound with S/B>2. For rescreening, hit criteria was ACT %>DMSO control+3*SD (DSO control) in each replicate at 10 μM. For counterscreening, hit criteria was mean ACT<DMSO control+3*SD (DMSO control) with ERα transient transfection in duplicate at 10 μM.

NR2F6 = biological target: T2, NR2F6 (Homo sapiens, UniProt P10588); assay: NR2F6 agonist screening, Firefly signal cmpd/DMSO; conditions: first set screening, 10 μM
T2 construct: expressed in transfected cells; also transient transfection
T2 sequence (P10588 1-404): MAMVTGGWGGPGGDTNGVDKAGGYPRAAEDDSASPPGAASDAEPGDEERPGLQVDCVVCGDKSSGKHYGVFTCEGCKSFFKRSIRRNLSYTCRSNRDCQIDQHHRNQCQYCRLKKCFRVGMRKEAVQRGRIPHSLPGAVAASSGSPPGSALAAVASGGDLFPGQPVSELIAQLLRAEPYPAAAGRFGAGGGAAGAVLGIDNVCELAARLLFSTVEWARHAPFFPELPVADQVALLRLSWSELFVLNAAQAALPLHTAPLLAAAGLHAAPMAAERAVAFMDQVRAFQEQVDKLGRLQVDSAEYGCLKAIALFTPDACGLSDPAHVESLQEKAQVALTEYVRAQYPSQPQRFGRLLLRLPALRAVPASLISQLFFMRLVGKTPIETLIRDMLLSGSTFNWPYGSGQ

Renilla_ERa = assay: Renilla signal in ERα counterscreen (Renilla_ERa); conditions: ERα transient transfection, 10 μM
[1] = repeat 1, read-out: Renilla, cmpd/DMSO repeat 1
[2] = repeat 2, read-out: Renilla, cmpd/DMSO repeat 2
[3] = repeat 1, read-out: Renilla_ERa, cmpd/DMSO repeat 1
[4] = repeat 2, read-out: Renilla_ERa, cmpd/DMSO repeat 2

Firefly_ERa, cmpd/DMSO repeat 1 (ERα) | Firefly_ERa, cmpd/DMSO repeat 2 (ERα) | Firefly, cmpd/DMSO repeat 1 (NR2F6) | Firefly, cmpd/DMSO repeat 2 (NR2F6) | Structure (SMILES) | fold induction at 10 µM (Renilla; [1]) | fold induction at 10 µM (Renilla; [2]) | fold induction at 10 µM (Renilla_ERa; [3]) | fold induction at 10 µM (Renilla_ERa; [4]) | Renilla, cmpd/DMSO repeat 1 (Renilla; repeat 1) | Renilla, cmpd/DMSO repeat 2 (Renilla; repeat 2) | Renilla_ERa, cmpd/DMSO repeat 1 (Renilla_ERa; repeat 1) | Renilla_ERa, cmpd/DMSO repeat 2 (Renilla_ERa; repeat 2)
1.2 | 1.2 | 2.1 | 2.8 | COCCNC(=O)c1ccc2c(c1)N=C(C)c1cc(C)ccc1S2 [Compound C8] | 3.4 | 3.1 | 1 | 1.1 | – | – | – | –
1.0 | 0.9 | 2.7 | 2.3 | CCn1c(=O)c2cc(C(=O)Nc3ccc4c(C)cc(=O)oc4c3)sc2c2ccccc21 [Compound C16] | 3.9 | 3.2 | 0.9 | 1.1 | – | – | – | –
1.8 | 1.8 | 3.0 | 1.9 | Nc1nonc1-c1noc(-c2cccc(COc3ccc(Cl)cc3Cl)c2)n1 [Compound 23] | – | – | – | – | 4.6 | 3.4 | 1.1 | 1.2
1.3 | 0.7 | 2.4 | 1.9 | O=c1[nH]c(CS(=O)(=O)c2ccccc2)nc2sc3c(c12)CCCC3 [Compound 25] | – | – | – | – | 3.1 | 2.1 | 0.9 | 1.0
